# According to patent US20120046329A1, “MODULATORS OF NOD1 AND NOD2 SIGNALING, METHODS OF IDENTIFYING MODULATORS OF NOD1 AND NOD2 SIGNALING, AND USES THEREOF” (Sanford-Burnham Medical Research Institute, priority 2010, published 2012):
# Columns and labels:
# [1] = system: IKKγ/NEMO, MYD88, FLIP, CARD6, APAF1 or NLRC4 over-expression; experiment: Gene transfection NF-κB luciferase, HEK 293T; type: cell-based, human
# TLR1, 2, 4, 5, 6 and 8 = experiment: NF-κB SEAP reporter in PMA-differentiated THP.1 macrophages, TLR agonists; type: cell-based, human; settings: 5 μM, 24 h
# Procedure: After 24 h incubation, SLAP activity in culture supernatants was measured, expressing data as percentage relative to treatment with inducer only (indicated as 100%; mean±SEM, n=2).
# Human myelomonocytic THP-1 cells containing a NF-κB/AP-1-inducible reporter gene encoding secreted alkaline phosphatase (SEAP) were employed for convenient monitoring of NF-κB activity.
# THP.1-Blue™ monocytic cells (Invivogen), stably containing NF-κB-driven secreted alkaline phosphatase reporter (SEAP), were plated and further treated as indicated. Stimulation was accessed colorimetrically measuring SEAP secreted into culture supernatants (QUANTI-Blue'm, Invivogen), using SpectraMax 190 plate reader (Molecular Devices).
# inflammasome = experiment: IL-1β secretion ELISA in RAW264.7 cells, inflammasome activators; type: cell-based, mouse; settings: RAW264.7, 5 μM
# From the text: Supernatants were collected after either 2 hrs (Salmonella infection) or 4 hrs (all others) and IL-1β levels were quantified by ELISA (mean+SD; n=3).
# Many NLRs form complexes with caspase-1, creating so-called “inflammasomes” responsible for proteolytic processing of inflammatory cytokine interleukin 1-beta (IL-1β). […] (FIGS. 1D and 1G), indicating a lack of promiscuity towards other NLRs.
# ELISA: For IL-8 ELISA, MCF7 cells stably expressing His6-FLAG-tagged NOD1 or NOD2 were produced by lentivirus infection. Cells were cultured up to 90% confluency. Assays were initiated using 5,000 cells per well (in 100 μl volume) of a 96-well transparent culture plate. […] Supernatants were collected into a new 96-well plate and stored at −80° C. IL-8 levels were measured using a human IL-8 ELISA (BD OptEIA™ Human IL-8 ELISA Set, BD Biosciences). For IL-1β ELISA, assays were initiated using 50,000 RAW264.7 cells per well (in 100 μl of Opti-Mem medium, Invitrogen) of a 96-well transparent culture plate. Cell treatments were performed as indicated. IL-1β levels were measured using mouse IL-1 beta ELISA Ready-Set-Go!™ Kit (E-Biosciences).
# NOD1 = target: T1, NOD1 (Homo sapiens, UniProt Q9Y239); experiment: γ-tri-DAP-induced IkBα mRNA expression; type: cell-based
# T1 sequence (Q9Y239 1-953): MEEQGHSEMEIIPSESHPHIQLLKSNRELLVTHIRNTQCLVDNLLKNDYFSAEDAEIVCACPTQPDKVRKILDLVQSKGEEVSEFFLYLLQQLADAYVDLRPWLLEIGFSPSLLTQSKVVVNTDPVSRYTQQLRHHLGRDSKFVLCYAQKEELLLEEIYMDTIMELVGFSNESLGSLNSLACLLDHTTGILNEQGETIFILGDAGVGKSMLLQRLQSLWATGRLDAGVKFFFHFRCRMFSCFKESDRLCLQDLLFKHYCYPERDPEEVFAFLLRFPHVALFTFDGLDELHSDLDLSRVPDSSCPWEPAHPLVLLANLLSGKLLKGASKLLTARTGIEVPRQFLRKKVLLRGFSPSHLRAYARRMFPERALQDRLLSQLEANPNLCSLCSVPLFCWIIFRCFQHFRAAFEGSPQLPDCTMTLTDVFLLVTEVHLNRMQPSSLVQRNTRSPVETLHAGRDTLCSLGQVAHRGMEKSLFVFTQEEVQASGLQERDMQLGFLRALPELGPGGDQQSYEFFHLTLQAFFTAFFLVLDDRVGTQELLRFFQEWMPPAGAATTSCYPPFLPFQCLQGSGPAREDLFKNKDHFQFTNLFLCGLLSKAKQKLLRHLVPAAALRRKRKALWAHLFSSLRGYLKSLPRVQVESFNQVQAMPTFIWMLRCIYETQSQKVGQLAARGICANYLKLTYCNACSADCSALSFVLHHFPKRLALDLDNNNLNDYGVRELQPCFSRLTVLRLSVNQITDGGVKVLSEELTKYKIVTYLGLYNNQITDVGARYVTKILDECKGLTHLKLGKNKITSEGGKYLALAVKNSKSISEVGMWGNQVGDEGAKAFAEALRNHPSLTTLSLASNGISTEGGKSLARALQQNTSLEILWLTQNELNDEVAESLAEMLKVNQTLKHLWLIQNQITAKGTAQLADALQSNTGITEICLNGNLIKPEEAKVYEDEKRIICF
# Procedure: RNA analysis: Total RNA was extracted using RNeasy™ Plus Mini kit (Qiagen). After isolation, 1-5 μg total RNA was reverse-transcribed, in the presence of oligo (dT) primer, according to the manufacturer (SuperScript First-Strand Synthesis, Invitrogen). First strand cDNA was diluted and analyzed in triplicates with gene-specific primers by realtime PCR, using a Stratagene Mx3000p sequence detection system with SYBR Green PCR master mix (Applied Biosystems). The gene expression (fold induction) was normalized with the respective levels of beta-actin or cyclophilin (CPH) expression. For TaqMan™-based quantitative PCR, assays were performed using TaqMan™ Gene Expression Master Mix with validated primers and probes (TNF: Hs00174128_ml, IL1B: Hs01555410_ml, IL6: Hs00985639_ml, NOD1: Hs00196075_ml, ACTB: hs999999903_ml) from Applied Biosystems.
# [2] = system: interferon response stimuli (RIG-I/MDA-5, IRF3); experiment: ISRE-driven luciferase reporter in HEK293T, poly(I:C), poly(dA:dT), Sendai virus; settings: 5 μM
# [3] = Plasma protein binding, human; type: in vitro ADME; settings: for Plasma Protein Binding (% Bound): Human
# [4] = Solubility in aqueous buffer
# [5] = In vivo RACE assay (pharmacokinetics, IP dosing); parameters: species or system wild type mice; settings: mice
# From the text: In vivo RACE assay data was obtained for compound 1:
# in conjunction with quantitative bioanalytical analysis to test its pharmacokinetics in wild type mice. […]
# NOD2 [6] = target: T2, NOD2 (Homo sapiens, UniProt Q9HC29); experiment: Subcellular fractionation of MCF-7 cells expressing tagged NOD2; settings: MCF-7, 5 μM, 24 h
# Procedure: After 24 h treatment, cytosolic and membrane subcellular fractions were isolated and analyzed (10 μg protein) by immunoblotting using antibodies specific for α-tubulin (cytosolic marker), pan-cadherin (plasma membrane marker), NOD2 (using anti-FLAG antibodies) and RIP2.
# For subcellular fractionation, cytosolic fractions were obtained by extensive resuspension of cell pellets into buffer A (10 mM Hepes 7.5, 1.5 mM MgCl2, 10 mM KCl, 0.5 mM DTT and protease inhibitors). […] Immunoblotting was performed using respective antibodies. Total lysates (50-60 μg) and subcellular fractions (10 μg) were also immunoblotted after protein quantification (Bio-Rad Protein Assay).
# NOD2 [7] = target: T2, NOD2; experiment: MDP-induced IL-8 secretion in MCF-7/NOD2 cells; settings: MCF-7 cells, ELISA
# [8] = Microsomal stability, mouse; type: in vitro ADME
# NOD2 [9] = target: T2, NOD2; experiment: MDP-stimulated (NOD2-dependent) NF-κB reporter assay; settings: reporter cell lines with low and overexpressed NOD2
# [10] = target: NOD1 association with RIP2, Bid, or SGT-1 (Homo sapiens, UniProt Q9Y239); experiment: Co-immunoprecipitation of NOD1 with interacting proteins, HEK 293T; type: cell-based; settings: over-expressing conditions, 5 μM
# [11] = Plasma protein binding, mouse; type: in vitro ADME; settings: for Plasma Protein Binding (% Bound): Mouse
# TNF-α induced NF-κB = experiment: TNF-α-induced NF-κB luciferase reporter counterscreen, HEK293T; type: cell-based, human
# T2 sequence (Q9HC29 whole entry): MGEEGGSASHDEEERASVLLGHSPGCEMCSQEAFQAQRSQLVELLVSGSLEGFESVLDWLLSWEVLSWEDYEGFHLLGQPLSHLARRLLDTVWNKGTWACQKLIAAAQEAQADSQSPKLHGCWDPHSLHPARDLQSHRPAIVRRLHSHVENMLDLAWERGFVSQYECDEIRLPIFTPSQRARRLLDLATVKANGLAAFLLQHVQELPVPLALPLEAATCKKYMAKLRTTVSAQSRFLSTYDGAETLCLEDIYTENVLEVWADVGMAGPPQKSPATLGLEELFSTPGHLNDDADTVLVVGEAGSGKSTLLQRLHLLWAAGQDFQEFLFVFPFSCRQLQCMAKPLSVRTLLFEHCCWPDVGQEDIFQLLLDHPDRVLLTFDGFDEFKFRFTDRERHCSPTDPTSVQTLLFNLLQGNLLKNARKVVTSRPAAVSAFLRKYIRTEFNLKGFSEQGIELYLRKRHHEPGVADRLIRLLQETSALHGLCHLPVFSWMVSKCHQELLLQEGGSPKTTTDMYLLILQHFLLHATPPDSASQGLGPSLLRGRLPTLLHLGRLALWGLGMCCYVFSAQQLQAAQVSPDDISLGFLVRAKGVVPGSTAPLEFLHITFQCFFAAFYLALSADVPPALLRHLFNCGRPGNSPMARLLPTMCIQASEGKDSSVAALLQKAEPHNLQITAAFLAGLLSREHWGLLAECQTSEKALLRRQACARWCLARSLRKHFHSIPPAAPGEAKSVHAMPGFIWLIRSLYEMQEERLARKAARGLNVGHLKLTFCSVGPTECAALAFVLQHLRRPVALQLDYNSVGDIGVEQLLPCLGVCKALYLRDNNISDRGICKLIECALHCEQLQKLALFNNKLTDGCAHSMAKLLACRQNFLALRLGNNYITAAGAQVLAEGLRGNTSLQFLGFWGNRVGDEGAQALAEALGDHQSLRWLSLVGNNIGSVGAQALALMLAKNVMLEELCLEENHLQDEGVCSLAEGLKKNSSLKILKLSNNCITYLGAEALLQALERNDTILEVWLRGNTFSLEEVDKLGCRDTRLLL
# Chain of NOD1 association with RIP2, Bid, or SGT-1 (O43353 whole entry partner, one chain of several): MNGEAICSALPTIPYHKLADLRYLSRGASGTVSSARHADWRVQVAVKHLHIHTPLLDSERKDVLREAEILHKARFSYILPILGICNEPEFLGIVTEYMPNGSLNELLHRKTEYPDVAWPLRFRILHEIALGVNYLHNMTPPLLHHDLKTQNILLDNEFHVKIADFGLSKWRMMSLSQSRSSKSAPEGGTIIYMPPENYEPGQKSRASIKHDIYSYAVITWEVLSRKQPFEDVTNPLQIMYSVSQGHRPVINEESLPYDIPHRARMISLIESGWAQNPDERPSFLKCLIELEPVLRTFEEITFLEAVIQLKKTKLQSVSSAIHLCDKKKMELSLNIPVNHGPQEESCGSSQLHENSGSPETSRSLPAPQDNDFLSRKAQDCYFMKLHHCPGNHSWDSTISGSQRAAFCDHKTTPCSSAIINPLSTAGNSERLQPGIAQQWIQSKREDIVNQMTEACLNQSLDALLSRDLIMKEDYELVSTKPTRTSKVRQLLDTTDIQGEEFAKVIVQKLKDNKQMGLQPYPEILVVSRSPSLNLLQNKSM
smiles,measurement,setting,value
Cc1ccc(S(=O)(=O)n2c(N)nc3ccccc32)cc1 [Compound 1],"Impact on NF-κB in cells over-expressing IKKγ/NEMO, MYD88, FLIP, CARD6, APAF1 or NLRC4",[1],No significant impact
same,Effect on NF-κB-inducible SEAP activity induced by TLR agonists,"TLR1, 2, 4, 5, 6 and 8",No inhibitory effects
same,Effect on IL-1β secretion induced by inflammasome activators,inflammasome,did not inhibit
same,γ-tri-DAP-induced expression of IkBα at the mRNA level,NOD1,inhibited
same,Effect on ISRE-driven reporter gene activity induced by other interferon response stimuli,[2],no inhibition
same,Plasma Protein Binding (% Bound),[3]; 1 μM,97.74 % Bound
same,Plasma Protein Binding (% Bound),[3]; 10 μM,97.45 % Bound
same,Plasma protein binding (in words),[3]; human,high
same,Solubility,"[4]; aqueous buffer, pH 6.2, aqueous buffer",1.7 µg/mL
same,Solubility,"[4]; pH 5.0, aqueous buffer",2.0 µg/mL
same,Solubility,"[4]; pH 7.4, aqueous buffer",2.0 µg/mL
same,Solubility (in words),[4]; three pH levels,low
same,Tolerability,[5]; IP,well tolerated
same,Concentration (uM) 20 min,[5]; IP 15 mg/kg,1.58 ± 0.06 µM
same,Concentration (uM) 120 min,[5]; IP 15 mg/kg,0.12 ± 0.05 µM
same,Compound exposure (in words),"[5]; IP 30 mg/kg and 15 mg/kg, T=20 min",significant compound exposure
same,Concentration (uM) 20 min,[5]; IP 30 mg/kg,5.24 ± 0.62 µM
same,Concentration (uM) 120 min,[5]; IP 30 mg/kg,0.54 ± 0.04 µM
same,NOD2 compartmentalization,NOD2 [6],No changes
same,Permeability,Permeability; pH 5.0,491 ×10⁻⁶ cm/s
same,Permeability,Permeability; pH 6.2,562 ×10⁻⁶ cm/s
same,Permeability,Permeability; pH 7.4,382 ×10⁻⁶ cm/s
same,Permeability (in words),Permeability; three pH levels,high
same,Activity on MDP induced (NOD2) mediated IL-8 release (in words),NOD2 [7],inactivity
same,Microsomal Stability (% Remaining at 1 hr),"[8]; Mouse, 1 hr",0.83 % Remaining
same,Stability in microsomes (in words),[8]; mouse,low
same,Inhibition of MDP stimulated (NOD2-dependent) signaling,NOD2 [9],not inhibiting
same,"Interference with NOD1 association with RIP2, Bid, or SGT-1",[10],did not interfere
same,Plasma Protein Binding (% Bound),[11]; 1 μM,95.45 % Bound
same,Plasma Protein Binding (% Bound),[11]; 10 μM,94.91 % Bound
same,Plasma protein binding (in words),[11]; mouse,high
same,IC50,"TNF-α induced NF-κB; Homo sapiens, HEK-293T, read-out: TNF-α IC50(μM)",> 20 µM
same,Activity on TNFα induced NF-κB (in words),"TNF-α induced NF-κB; reporter assay, listed as CID1088438",selective
